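Where inhibition never reached the appropriate level, the endpoint shown equals the highest concentration tested. Otherwise, values were interpolated linearly from a five-concentration, 48-hour dose response in 96-well plates. The concentration for 50% growth inhibition is given as GI50.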 The source made the active and inactive calls. Cut-off read from the data, not from the text of the source: active = GI50 up to about 1.1 µM and inactive = higher.
What was measured:
Experiment in all cases: DTP human tumour cell line panel, 48 h
A498 = system: A498
COLO 205 = system: COLO 205
HCC 2998 = system: HCC 2998
HCT-116 = system: HCT-116
HCT-15 = system: HCT-15
HT-29 = system: HT-29
M14 = system: M14
MCF7 = system: MCF7
NCI-H23 = system: NCI-H23
NCI/ADR-RES = system: NCI/ADR-RES
OVCAR-4 = system: OVCAR-4
OVCAR-5 = system: OVCAR-5
OVCAR-8 = system: OVCAR-8
SF-268 = system: SF-268
SK-MEL-2 = system: SK-MEL-2
SK-OV-3 = system: SK-OV-3
SNB-19 = system: SNB-19
SNB-75 = system: SNB-75
SF-539 = system: SF-539
SN12C = system: SN12C

Structure (SMILES)	GI50 (A498)	GI50 (COLO 205)	GI50 (HCC 2998)	GI50 (HCT-116)	GI50 (HCT-15) [µM]	GI50 (HT-29)	GI50 (M14)	GI50 (MCF7)	GI50 (NCI-H23)	GI50 (NCI/ADR-RES)	GI50 (OVCAR-4)	GI50 (OVCAR-5)	GI50 (OVCAR-8)	GI50 (SF-268)	GI50 (SK-MEL-2)	GI50 (SK-OV-3)	GI50 (SNB-19)	GI50 (SNB-75)	GI50 (SF-539)	GI50 (SN12C)
CCOC(=O)c1cc(C2CCN(Cc3ccccc3)C2=S)c(C(=O)C=[N+]=[N-])[nH]1 (configuration not stated)	77.4 µM (inactive)	33.8 µM (inactive)	49.7 µM (inactive)	40.5 µM (inactive)	19.5	31.5 µM (inactive)	20.1 µM (inactive)	14.6 µM (inactive)	21.7 µM (inactive)	24.5 µM (inactive)	54.7 µM (inactive)	30.3 µM (inactive)	37.3 µM (inactive)	25.8 µM (inactive)	21.2 µM (inactive)	> 100 µM (inactive)	28.8 µM (inactive)	29.4 µM (inactive)	–	–
CCOC(=O)NC(OCc1ccccc1)(C(=O)OC)C(F)(F)F (configuration not stated)	–	> 100 µM (inactive)	> 100 µM (inactive)	> 100 µM (inactive)	> 100	> 100 µM (inactive)	> 100 µM (inactive)	> 100 µM (inactive)	> 100 µM (inactive)	> 100 µM (inactive)	> 100 µM (inactive)	> 100 µM (inactive)	> 100 µM (inactive)	> 100 µM (inactive)	> 100 µM (inactive)	> 100 µM (inactive)	> 100 µM (inactive)	> 10 µM (inactive)	> 100 µM (inactive)	> 100 µM (inactive)
C/C=C/C1=CC(=O)C(O)C1O (configuration not stated)	8.28 µM (inactive)	22 µM (inactive)	27.5 µM (inactive)	26.2 µM (inactive)	27.6	29.6 µM (inactive)	–	30.8 µM (inactive)	25.9 µM (inactive)	25.5 µM (inactive)	37.1 µM (inactive)	39.7 µM (inactive)	24.8 µM (inactive)	26.5 µM (inactive)	36.5 µM (inactive)	40.7 µM (inactive)	37.2 µM (inactive)	23.6 µM (inactive)	23.9 µM (inactive)	23.1 µM (inactive)
N#CCc1c(F)c(F)c(F)c(F)c1F	> 100 µM (inactive)	> 100 µM (inactive)	> 100 µM (inactive)	> 100 µM (inactive)	> 100	> 100 µM (inactive)	> 100 µM (inactive)	> 100 µM (inactive)	> 100 µM (inactive)	> 100 µM (inactive)	–	> 100 µM (inactive)	> 100 µM (inactive)	> 100 µM (inactive)	–	> 100 µM (inactive)	> 100 µM (inactive)	–	> 100 µM (inactive)	> 100 µM (inactive)
Cc1ccc(S(=O)(=O)N2c3ccccc3[C@H]3CCc4c([nH]c5ccccc45)[C@H]32)cc1	–	> 100 µM (inactive)	> 100 µM (inactive)	> 100 µM (inactive)	–	> 100 µM (inactive)	> 100 µM (inactive)	> 100 µM (inactive)	> 100 µM (inactive)	> 100 µM (inactive)	0.942 µM (active)	> 100 µM (inactive)	> 100 µM (inactive)	> 100 µM (inactive)	> 100 µM (inactive)	> 100 µM (inactive)	> 100 µM (inactive)	> 100 µM (inactive)	27.7 µM (inactive)	> 100 µM (inactive)
CC1CN=C(N(C(=O)Nc2ccccc2)C2CCCCC2)S1 (configuration not stated)	14.4 µM (inactive)	19 µM (inactive)	18.3 µM (inactive)	16.7 µM (inactive)	14.4	17 µM (inactive)	–	16.6 µM (inactive)	16.4 µM (inactive)	14.5 µM (inactive)	14.5 µM (inactive)	14.7 µM (inactive)	25.9 µM (inactive)	17.6 µM (inactive)	15.2 µM (inactive)	31.3 µM (inactive)	29.2 µM (inactive)	12.6 µM (inactive)	22.4 µM (inactive)	16.6 µM (inactive)
O=C(Nc1c(C(=O)NC2CCCCC2)[nH]c(=O)[nH]c1=O)c1ccc(Cl)cc1	–	> 100 µM (inactive)	–	> 100 µM (inactive)	> 100	> 100 µM (inactive)	> 100 µM (inactive)	–	–	–	> 100 µM (inactive)	> 100 µM (inactive)	> 100 µM (inactive)	> 100 µM (inactive)	–	> 100 µM (inactive)	< 0.01 µM (active)	22 µM (inactive)	> 100 µM (inactive)	> 100 µM (inactive)
COC(=O)C(C/C=C(\C)c1ccc(Cl)cc1)C(C)=O (configuration not stated)	34.4 µM (inactive)	59.8 µM (inactive)	75.9 µM (inactive)	41.7 µM (inactive)	37.5	32.3 µM (inactive)	–	37.7 µM (inactive)	35.5 µM (inactive)	23.7 µM (inactive)	27.2 µM (inactive)	16.4 µM (inactive)	52 µM (inactive)	48.3 µM (inactive)	5.53 µM (inactive)	> 100 µM (inactive)	> 100 µM (inactive)	29.2 µM (inactive)	99.5 µM (inactive)	56 µM (inactive)
O=C(c1nc2ccc(Cl)cc2nc1O)C(O)c1ccccc1 (configuration not stated)	14.8 µM (inactive)	> 100 µM (inactive)	> 100 µM (inactive)	> 100 µM (inactive)	98.6	> 100 µM (inactive)	> 100 µM (inactive)	–	92.9 µM (inactive)	–	14.3 µM (inactive)	> 100 µM (inactive)	> 100 µM (inactive)	77.1 µM (inactive)	> 100 µM (inactive)	> 100 µM (inactive)	> 100 µM (inactive)	–	57.7 µM (inactive)	> 100 µM (inactive)
COC(=O)C(=O)Cc1nc2ccccc2o1	> 100 µM (inactive)	–	> 100 µM (inactive)	> 100 µM (inactive)	> 100	> 100 µM (inactive)	> 100 µM (inactive)	–	> 100 µM (inactive)	–	> 100 µM (inactive)	> 100 µM (inactive)	–	> 100 µM (inactive)	> 100 µM (inactive)	> 100 µM (inactive)	> 100 µM (inactive)	> 100 µM (inactive)	> 100 µM (inactive)	> 100 µM (inactive)
Cc1ccc(NC(=O)C(Cc2c[nH]c3ccccc23)NC(=O)Oc2ccccc2)cc1C (configuration not stated)	27.4 µM (inactive)	50.4 µM (inactive)	–	61.5 µM (inactive)	62.4	41.3 µM (inactive)	74.8 µM (inactive)	41.2 µM (inactive)	> 100 µM (inactive)	83.8 µM (inactive)	44.3 µM (inactive)	> 100 µM (inactive)	57.5 µM (inactive)	50.7 µM (inactive)	85.9 µM (inactive)	> 100 µM (inactive)	> 100 µM (inactive)	–	> 100 µM (inactive)	64.1 µM (inactive)
COc1ccc(-c2c3c(nc4nc(SCCc5ccccc5)nc(N)c24)CCCC3)cc1OC	–	> 100 µM (inactive)	–	> 100 µM (inactive)	> 100	> 100 µM (inactive)	> 100 µM (inactive)	> 100 µM (inactive)	> 100 µM (inactive)	> 100 µM (inactive)	75.7 µM (inactive)	> 100 µM (inactive)	> 100 µM (inactive)	> 100 µM (inactive)	–	> 100 µM (inactive)	> 100 µM (inactive)	20.5 µM (inactive)	85.7 µM (inactive)	> 100 µM (inactive)
O=C1c2ccccc2C(=O)N1/N=C1/SC(=N\c2ccccc2)/C(=N/c2ccccc2)N1c1ccccc1	19.7 µM (inactive)	> 85.3 µM (inactive)	> 48.5 µM (inactive)	38.6 µM (inactive)	> 47.5	> 50 µM (inactive)	77.1 µM (inactive)	> 68.1 µM (inactive)	> 46.8 µM (inactive)	> 100 µM (inactive)	> 100 µM (inactive)	> 100 µM (inactive)	40.1 µM (inactive)	> 100 µM (inactive)	> 55.2 µM (inactive)	–	> 90.4 µM (inactive)	19.9 µM (inactive)	33.2 µM (inactive)	> 39.3 µM (inactive)
Cc1cccc(C(C)C)c1NC(=O)/C(Cc1c([N+](=O)[O-])cccc1[N+](=O)[O-])=N/NC(=O)CC#N	44.4 µM (inactive)	> 100 µM (inactive)	> 100 µM (inactive)	> 100 µM (inactive)	> 100	> 100 µM (inactive)	> 100 µM (inactive)	–	–	–	–	> 100 µM (inactive)	–	> 100 µM (inactive)	> 100 µM (inactive)	> 100 µM (inactive)	> 100 µM (inactive)	> 100 µM (inactive)	> 100 µM (inactive)	–
C=CC(C)C1(CCCOCc2ccccc2)C(=S)N2CCC3(CC24CCCC14)OCCO3 (configuration not stated)	5.01 µM (inactive)	28.5 µM (inactive)	56.1 µM (inactive)	–	> 100	21.9 µM (inactive)	–	–	6.1 µM (inactive)	–	9.46 µM (inactive)	> 100 µM (inactive)	23.3 µM (inactive)	5.93 µM (inactive)	12.2 µM (inactive)	> 100 µM (inactive)	24.5 µM (inactive)	0.0506 µM (active)	–	91.6 µM (inactive)
Cc1ccc(/N=N/C(=N\NC(=O)c2ccc(C)cc2)c2ccc(N(CCC#N)CCC#N)cc2C)cc1	> 100 µM (inactive)	48.2 µM (inactive)	50.2 µM (inactive)	–	33.5	19.4 µM (inactive)	30 µM (inactive)	31 µM (inactive)	35.3 µM (inactive)	38.9 µM (inactive)	47.1 µM (inactive)	50.5 µM (inactive)	17.7 µM (inactive)	22.5 µM (inactive)	20.5 µM (inactive)	65.6 µM (inactive)	> 100 µM (inactive)	35.5 µM (inactive)	13.7 µM (inactive)	–

Reference: ChEMBL document CHEMBL1201862, “PubChem BioAssay data set” (2004)
